{"source": "patent US20240125770A1", "about": "“CELL ANALYSIS” (University of Dundee, priority 2021, published 2024)", "test_system": "human iPSC lines", "assay": "Cell painting assay (image-based cell phenotyping) on a panel of human iPSC lines from different donors", "conditions": "24 hrs; for UMAP embedding of cell painting features: cluster: panel of HipSci human iPSC lines, clusters: 1 DMSO and weak responders, 2 Atorvastatin, Simvastatin, Fluphenazine, 3 Afatinib, Erlotinib, Everolimus and Rapamycin, 4 DNA damaging agents and topoisomerase inhibitors, 5 non-microtubule targeting cytotoxics, 6 Microtubule polymerization effectors; for Uniformity or variation of response between human iPSC lines in UMAP embedding: panel of human iPSC lines from different donors, concentration of Table 2 (5 μM; fenbendazole 3.34 μM); for Response to drug in UMAP embedding, cell lines paim3 and pelm1: paim3 and pelm1 lines (FIG. 7 legend prints pelm3); for Changes of features in the cell nucleus across cell lines: etoposide 1.7 μM, irinotecan 5 μM, nuclear painting probes", "protocol": "384-well tissue culture plates (CellCarrier-384 Ultra Microplates, Perkin Elmer 6057300) were coated with human plasma fibronectin (Merck Millipore FC010) at a concentration of 5 μg/cm^2. Cells were passaged as described above with TrypLE Select, counted and seeded on the fibronectin coated wells at a concentration of 3×10^4/cm^2. Cell line plating was in rows, with three wells per condition for each cell line. Cells were incubated for 24 hrs prior to drug treatment, followed by a further 24 hrs incubation before final fixation and staining and high content imaging. Antibody staining of a separate 384-well plate at 48 hrs confirmed that pluripotency was maintained at 48 hrs.\nAll fixation, permeabilisation and immunostaining were performed at room temperature. Paraformaldehyde 8% in PBS (PFA, Sigma F8775) was added to an equal volume of medium for a final concentration of 4% and incubated for 15 min. Fixed cells were washed in PBS and permeabilised with 0.1% v/v Triton-X100 (Sigma) for 15 min. Following permeabilisation, cells were washed in TBS and stained with DAPI (Thermo Fisher D1306), SYTO 14 (Thermo Fisher S7576), Concanavalin A (Thermo Fisher C11252), Phalloidin Alexa (Thermo Fisher A12381), and WGA (Thermo Fisher W11262) for 1 hr. Mitotracker (Thermo Fisher M22426) staining was performed in live cells with a 30 min incubation at 37° C. prior to fixation. Cell fixation, permeabilisation, staining and washing steps were performed using automated liquid handling systems (405 plate washer, BioTek—Tempest, Formulatrix).\nDrug dosing on 384-well plates was performed using an Echo acoustic liquid handler and corresponding software (Labcyte). Screened compounds were selected from the appropriate chemical library plates containing Cloud library (Enamine) and NPSC Control library. For etoposide drug dosing was performed at 1.7 μM. […]\nAll imaging data were collected on an InCell 2200 high content imager, with a 20× lens and a Quad2 multichroic mirror (GE, Issaquah, WA).\nRaw images were imported into OMERO Plus (Glencoe Software, Inc., (9)) and then processed using a custom pipeline in CellProfiler (8) which segmented nuclei, cytoplasm, golgi and cortical protrusions and calculated a range of defined features. All further steps were executed using the Pandas Python library (10). Features for each plate were normalised by the median of features in DMSO control for that plate. Features whose coefficient of variation was greater than 0.50 were removed from further analysis (typically these were Zernike Phase features). We further removed all features with |Spearman coefficient|>0.98. Z-normalised data were then visualised using principal component analysis (PCA) and Uniform Manifold Approximation and Projection (UMAP (11)). For PCA, we calculated the first 15 principal components and variance included in the first two principal components was 77.1%. UMAP parameters were n_neighbours=15, mindist=0.01 and a cosine metric for scaling distance between points. GO enrichment analysis was carried out using WebGestalt (WEB-based Gene SeT AnaLysis Toolkit) (12)\nWe next used a selection of human iPSCs from the HipSci cohort to test our ability to detect differential effects of FDA-approved drugs, using an image-based cell phenotyping assay. All selected human iPSC lines were previously subjected to whole genome sequencing (https://www.hipsci.org) and the genome data are publicly available. Cells from selected human iPSC lines (Table 1), were grown in 384 well plates, treated with selected compounds (drugs and concentrations used are shown in Table 2), for 24 hrs, then fixed and stained with cell painting markers (see Materials and Methods). Images were recorded in an automated, plate-based imager, then imported into OMERO (9). Images were segmented with respect to the features, ‘nuclei’, ‘cytoplasm’, ‘Golgi’ and ‘protrusions’, using a custom CellProfiler pipeline (13) and image features were then calculated (˜300 features per cell compartment). […]", "note": "“Also recorded” adds a separate entry of the source.", "data": [{"smiles": "CC(C)c1c(C(=O)Nc2ccccc2)c(-c2ccccc2)c(-c2ccc(F)cc2)n1CC[C@@H](O)C[C@@H](O)CC(=O)O", "note": "[Atorvastatin]", "values": [{"measurement": "Magnitude of response: heatmap of deviations of all features from DMSO", "setting": "all cell lines, before Z normalization, 5 μM, FIG. 5A", "value": "the magnitude of the responses differ between the different cell lines"}, {"measurement": "UMAP embedding of cell painting features: cluster", "setting": "5 μM", "value": "cluster 2"}, {"measurement": "Uniformity or variation of response between human iPSC lines in UMAP embedding", "value": "tight clustering in UMAP embedding"}]}, {"smiles": "O=C(CCCCCCC(=O)Nc1ccccc1)NO", "note": "[Vorinostat]", "values": [{"measurement": "Uniformity or variation of response between human iPSC lines in UMAP embedding", "value": "splitting of clusters"}]}, {"smiles": "COC(=O)Nc1nc2ccc(Sc3ccccc3)cc2[nH]1", "note": "[Fenbendazole]", "values": [{"measurement": "Uniformity or variation of response between human iPSC lines in UMAP embedding", "value": "splitting of clusters"}]}, {"smiles": "O=c1[nH]cc(F)c(=O)[nH]1", "note": "[5-FU]", "values": [{"measurement": "Uniformity or variation of response between human iPSC lines in UMAP embedding", "value": "Most cells responded to 5-FU (cluster 1, red, FIG. 3A), but several showed a response indistinguishable from DMSO"}]}, {"smiles": "CO[C@H]1C[C@@H]2CC[C@@H](C)[C@@](O)(O2)C(=O)C(=O)N2CCCC[C@H]2C(=O)O[C@H]([C@H](C)C[C@@H]2CC[C@@H](OCCO)[C@H](OC)C2)CC(=O)[C@H](C)/C=C(\\C)[C@@H](O)[C@@H](OC)C(=O)[C@H](C)C[C@H](C)/C=C/C=C/C=C/1C", "note": "[Everolimus]", "values": [{"measurement": "UMAP embedding of cell painting features: cluster", "setting": "5 μM", "value": "cluster 3"}]}, {"smiles": "C#Cc1cccc(Nc2ncnc3cc(OCCOC)c(OCCOC)cc23)c1", "note": "[Erlotinib]", "values": [{"measurement": "Response to drug in UMAP embedding, all other / majority of human iPSC lines", "setting": "human iPSC lines other than paim3 and pelm1, 5 μM", "value": "resembles rapamycin and everolimus; also recorded: clustered with rapamycin and everolimus"}, {"measurement": "Response to drug in UMAP embedding, cell lines paim3 and pelm1", "setting": "5 μM", "value": "afatinib cluster"}, {"measurement": "Response to drug in UMAP embedding, cell lines paim3 and pelm1", "setting": "5 μM, listed as erlotinib", "value": "clustered with afatinib"}, {"measurement": "Uniformity or variation of response between human iPSC lines in UMAP embedding", "value": "differential response of some lines"}, {"measurement": "Response to drug in UMAP embedding, cell line voce2", "setting": "voce2 line (along with the majority of hiPSCs), 5 μM, FIG. 7", "value": "Erlotinib cluster"}, {"measurement": "Response to drug in UMAP embedding, cell line zaie1", "setting": "zaie1 line, 5 μM, FIG. 7", "value": "weak responders group"}]}, {"smiles": "CCc1c2c(nc3ccc(OC(=O)N4CCC(N5CCCCC5)CC4)cc13)-c1cc3c(c(=O)n1C2)COC(=O)[C@]3(O)CC", "note": "[Irinotecan]", "values": [{"measurement": "Changes of features in the cell nucleus across cell lines", "value": "cause similar changes in multiple cell lines"}]}, {"smiles": "COc1cc([C@@H]2c3cc4c(cc3[C@@H](O[C@@H]3O[C@@H]5CO[C@@H](C)O[C@H]5[C@H](O)[C@H]3O)[C@H]3COC(=O)[C@H]23)OCO4)cc(OC)c1O", "note": "[Etoposide]", "values": [{"measurement": "Changes of features in the cell nucleus across cell lines", "value": "cause similar changes in multiple cell lines"}]}]}
